# Test results published in US20020037559A1, “PROCESS FOR PRODUCING N-PROTECTED D-PROLINE DERIVATIVES” (priority 1996, published 2002).
# “Also recorded” adds a separate entry of the source.
# Key:
# N-acyl-L-proline acylase [1] = assay: Inducers of N-acyl-L-proline acylase, resting cells tested against N-Z-L-proline and N-Z-D-proline; type: cell-based, Arthrobacter sp. HSZ5; conditions: for Induction of the enzymatic activity (N-acyl-L-proline acylase): 1 g/l added to minimal medium with fructose 5 g/l and L-glutamate 2 g/l, proline detected by HPLC
# Procedure: Arthrobacter sp. HSZ5 was grown in minimal medium (Example 1) using fructose (5 g/l) as the C source and L-glutamate (2 g/l) as the N source.
# [2] = system: N-acyl-L-proline acylase of Arthrobacter sp. HSZ5; assay: Effect of product inhibition on the activity of the N-acyl-L-proline acylase; type: cell-based; conditions: for Inhibition of the enzymatic activity of N-acyl-L-proline acylase: cells pre-incubated 30 minutes (30° C., pH 6.4) with product, then 30° C., pH 6.5, 50 g/l N-Z-L-proline; for Manner of inhibition: from dependence of inhibition on concentration
# Procedure: Arthrobacter sp. HSZ5 was grown (30° C., 120 rpm) in the medium described in Table 1 using fructose (5 […]) as the C or N source. After reaching the desired cell density, the cells were harvested by centrifugation, washed in sodium chloride solution (0.9%) and finally also resuspended in the latter. […] As the 100% value, the result of the batch at pH=7.0 was employed. d) Effect of product inhibition on the activity of the N-acyl-L-proline acylase of Arthrobacter sp. HSZ5 cells having N-acyl-L-proline acylase activity were prepared as described under 9a). […] As the 100% value, the results of the batch was employed here which had been incubated without addition of one of the products.
# Arthrobacter sp. HSZ5 [3] = assay: Enzymatic hydrolysis of N-Z-DL-proline by resting cells; type: cell-based; conditions: after 60 minutes; N-Z-DL-proline 50 g/l, OD650=30, 30° C., pH 7.0, HPLC
# Procedure: a) Arthrobacter sp. […] The cells were harvested and washed as described previously. The resting cells (OD650=30) were incubated at 30° C. with N-Z-DL-proline (50 g/l) under pH stasis (pH 7.0) and with stirring.
# [4] = system: Agrobacterium/Rhizobium HSZ30; assay: Growth using N-protected amino acids as the sole N source; type: cell-based; conditions: minimal medium, fructose 5 g/l as C source, N source 5 g/l, 30° C., 120 rpm
# Procedure: (§1) Arthrobacter sp. HSZ5, Alcaligenes xylosoxidans ssp. denitrificans HSZ17, Agrobacterium/Rhizobium HSZ30, Bacillus simplex K2, Alcaligenes piechaudii K4 and Pseudomonas putida […] were grown (30° C., 120 rpm) in the medium described in Table 1 using fructose (5 g/l) as the C source. As the sole N source (5 g/l), in each case various N-protected amino acids were added. On reaching a cell density of OD650>0.5, the batch was assessed as positive.
# Arthrobacter sp. HSZ5 [5] = assay: as above; type: cell-based; conditions: minimal medium, fructose 5 g/l as C source, N source 5 g/l, 30° C., 120 rpm
# Procedure: as §1
# Bacillus simplex K2 = assay: as above; type: cell-based; conditions: minimal medium, fructose 5 g/l as C source, N source 5 g/l, 30° C., 120 rpm
# Procedure: as §1
# Pseudomonas putida K32 = assay: as above; type: cell-based; conditions: minimal medium, fructose 5 g/l as C source, N source 5 g/l, 30° C., 120 rpm
# Procedure: as §1
# N-acyl-L-proline acylase [6] = assay: Substrate specificity of N-acyl-L-proline acylase; type: biochemical, Arthrobacter sp. HSZ5
# Text: The enzymes according to the invention, the N-acyl-L-proline acylases, can be obtained, for example, by customary expert disruption of the described microorganism cells, preferably the enzymes are obtained from Arthrobacter sp. HSZ5 (DSM 10329). For this, for example, the ultrasound, French press or lysozyme method can be used. The enzymes are characterized by the following properties:
# N-acyl-L-proline acylase, characterized by the following properties:
# [7] = system: Alcaligenes piechaudii K4; assay: Growth using N-protected amino acids as the sole N source; type: cell-based; conditions: minimal medium, fructose 5 g/l as C source, N source 5 g/l, 30° C., 120 rpm
# Procedure: as §1
# [8] = system: Alcaligenes xylosoxidans ssp. denitrificans HSZ17; assay: as above; type: cell-based; conditions: minimal medium, fructose 5 g/l as C source, N source 5 g/l, 30° C., 120 rpm
# Procedure: as §1
# Arthrobacter sp. HSZ5 [9] = assay: Biotransformation of N-Z-DL-proline in 450 l fermenter; type: cell-based; conditions: pH 7.5-8.5, 30° C.
# Text: d) Arthrobacter sp. […] The enzymatic activity was then induced by addition of 4 kg of 50% (w/w) N-Z-DL-proline solution. […] The cells were removed by ultracentrifugation from the 320 kg of culture finally obtained and an aliquot (1444 g) of the cell-free fermentation broth was worked up as described under 6a).
smiles,measurement,setting,value
O=C(O)C1CCCN1C(=O)OCc1ccccc1 (racemic) [N-Z-DL-proline],Induction of the enzymatic activity (N-acyl-L-proline acylase),N-acyl-L-proline acylase [1],induced the desired enzymatic activity
O=C(O)[C@@H]1CCCN1 [L-proline],Inhibition of the enzymatic activity of N-acyl-L-proline acylase,[2],no inhibition of the enzymatic activity at all even in high concentration
"O=C(O)[C@H]1CCCN1C(=O)OCc1ccccc1 [N-Z-D-proline, N-benzyloxycarbonyl-D-proline]",Inhibition of the enzymatic activity of N-acyl-L-proline acylase,[2],drastic lowering of the enzyme activity with increasing concentration
same,Inhibition of the enzymatic activity of N-acyl-L-proline acylase,[2]; listed as N-benzyloxycarbonyl-D-proline,inhibitory action
same,Manner of inhibition,[2],competitive inhibitor
same,Hydrolysis by resting cells,Arthrobacter sp. HSZ5 [3],unchanged
"C[C@H](NC(=O)OCc1ccccc1)C(=O)O [N-Z-L-alanine, N-benzyloxycarbonyl-L-alanine]",Growth using N-protected amino acid as the sole N source,[4],"+ (On reaching a cell density of OD650>0.5, the batch was assessed as positive)"
same,Growth using N-protected amino acid as the sole N source,Arthrobacter sp. HSZ5 [5],"+ (On reaching a cell density of OD650>0.5, the batch was assessed as positive)"
same,Growth using N-protected amino acid as the sole N source,Bacillus simplex K2,"+ (On reaching a cell density of OD650>0.5, the batch was assessed as positive)"
same,Growth using N-protected amino acid as the sole N source,Pseudomonas putida K32,"+ (On reaching a cell density of OD650>0.5, the batch was assessed as positive)"
same,Substrate specificity (hydrolysis by the enzyme),N-acyl-L-proline acylase [6],hydrolysed
"O=C(O)[C@@H]1CCCN1C(=O)OCc1ccccc1 [N-Z-L-proline, N-benzyloxycarbonyl-L-proline]",Growth using N-protected amino acid as the sole N source,[4],"+ (On reaching a cell density of OD650>0.5, the batch was assessed as positive)"
same,Growth using N-protected amino acid as the sole N source,[7],"+ (On reaching a cell density of OD650>0.5, the batch was assessed as positive)"
same,Growth using N-protected amino acid as the sole N source,[8],"+ (On reaching a cell density of OD650>0.5, the batch was assessed as positive)"
same,Growth using N-protected amino acid as the sole N source,Arthrobacter sp. HSZ5 [5],"+ (On reaching a cell density of OD650>0.5, the batch was assessed as positive)"
same,Growth using N-protected amino acid as the sole N source,Bacillus simplex K2,"+ (On reaching a cell density of OD650>0.5, the batch was assessed as positive)"
same,Growth using N-protected amino acid as the sole N source,Pseudomonas putida K32,"+ (On reaching a cell density of OD650>0.5, the batch was assessed as positive)"
same,Induction of the enzymatic activity (N-acyl-L-proline acylase),N-acyl-L-proline acylase [1],induced the desired enzymatic activity
same,Acceptance as substrate by induced resting cells,"N-acyl-L-proline acylase [1]; resting cells, tested against N-Z-L-proline and N-Z-D-proline",accepted as the substrate
same,Hydrolysis by resting cells,Arthrobacter sp. HSZ5 [3],almost completely hydrolysed
same,Maximal rate of hydrolysis,Arthrobacter sp. HSZ5 [9],about 12 g of N-Z-L-proline hydrolysed/l×h
"O=C(O)[C@@H]1CCC(=O)N1C(=O)OCc1ccccc1 [N-Z-L-pyroglutamate, N-benzyloxycarbonyl-L-pyroglutamate]",Growth using N-protected amino acid as the sole N source,[4],"+ (On reaching a cell density of OD650>0.5, the batch was assessed as positive)"
same,Growth using N-protected amino acid as the sole N source,[7],"+ (On reaching a cell density of OD650>0.5, the batch was assessed as positive)"
same,Growth using N-protected amino acid as the sole N source,[8],"+ (On reaching a cell density of OD650>0.5, the batch was assessed as positive)"
same,Growth using N-protected amino acid as the sole N source,Arthrobacter sp. HSZ5 [5],"+ (On reaching a cell density of OD650>0.5, the batch was assessed as positive)"
same,Growth using N-protected amino acid as the sole N source,Bacillus simplex K2,"+ (On reaching a cell density of OD650>0.5, the batch was assessed as positive)"
same,Growth using N-protected amino acid as the sole N source,Pseudomonas putida K32,"+ (On reaching a cell density of OD650>0.5, the batch was assessed as positive)"
O=C(N[C@@H](CO)C(=O)O)OCc1ccccc1 [N-Z-L-serine],Growth using N-protected amino acid as the sole N source,Arthrobacter sp. HSZ5 [5],"+ (On reaching a cell density of OD650>0.5, the batch was assessed as positive)"
same,Growth using N-protected amino acid as the sole N source,Pseudomonas putida K32,"+ (On reaching a cell density of OD650>0.5, the batch was assessed as positive)"
CN(CC(=O)O)C(=O)OCc1ccccc1 [N-Z-sarcosine],Growth using N-protected amino acid as the sole N source,Arthrobacter sp. HSZ5 [5],"+ (On reaching a cell density of OD650>0.5, the batch was assessed as positive)"
CC(=O)N1CCC[C@H]1C(=O)O [N-acetyl-L-proline],Growth using N-protected amino acid as the sole N source,[4],"+ (On reaching a cell density of OD650>0.5, the batch was assessed as positive)"
same,Growth using N-protected amino acid as the sole N source,[8],"+ (On reaching a cell density of OD650>0.5, the batch was assessed as positive)"
same,Growth using N-protected amino acid as the sole N source,Arthrobacter sp. HSZ5 [5],"+ (On reaching a cell density of OD650>0.5, the batch was assessed as positive)"
same,Growth using N-protected amino acid as the sole N source,Pseudomonas putida K32,"+ (On reaching a cell density of OD650>0.5, the batch was assessed as positive)"
O=C(O)[C@@H]1CCCN1C(=O)c1ccccc1 [N-benzoyl-L-proline],Growth using N-protected amino acid as the sole N source,Arthrobacter sp. HSZ5 [5],"+ (On reaching a cell density of OD650>0.5, the batch was assessed as positive)"
same,Growth using N-protected amino acid as the sole N source,Pseudomonas putida K32,"+ (On reaching a cell density of OD650>0.5, the batch was assessed as positive)"
CC(C)COC(=O)N1CCC[C@H]1C(=O)O [N-isobutoxycarbonyl-L-proline],Growth using N-protected amino acid as the sole N source,[7],"+ (On reaching a cell density of OD650>0.5, the batch was assessed as positive)"
same,Growth using N-protected amino acid as the sole N source,Arthrobacter sp. HSZ5 [5],"+ (On reaching a cell density of OD650>0.5, the batch was assessed as positive)"
same,Growth using N-protected amino acid as the sole N source,Pseudomonas putida K32,"+ (On reaching a cell density of OD650>0.5, the batch was assessed as positive)"
O=C(O)[C@@H]1CCCN1C(=O)Cc1ccccc1 [N-phenylacetyl-L-proline],Growth using N-protected amino acid as the sole N source,[7],"+ (On reaching a cell density of OD650>0.5, the batch was assessed as positive)"
same,Growth using N-protected amino acid as the sole N source,Arthrobacter sp. HSZ5 [5],"+ (On reaching a cell density of OD650>0.5, the batch was assessed as positive)"
O=C(O)CCC(=O)N1CCC[C@H]1C(=O)O [N-succinyl-L-proline],Growth using N-protected amino acid as the sole N source,Pseudomonas putida K32,"+ (On reaching a cell density of OD650>0.5, the batch was assessed as positive)"
OCc1ccccc1 [benzyl alcohol],Inhibition of the enzymatic activity of N-acyl-L-proline acylase,[2],drastic lowering of the enzyme activity with increasing concentration; also recorded: inhibitory action
same,Manner of inhibition,[2],non-competitive
